Legend:
[1] = system: OC-1 cells; test: Seahorse bioenergetics experiment (oxygen consumption rate) after cisplatin; assay type: cell-based
Method: Mitochondrial function was analysed by measuring oxygen consumption rate (OCR) using real-time Seahorse Flux Analyser XF 96 (Seahorse Bioscience, USA) with our well-established method (Kovacevic, Bozica, et al. “Novel hydrogel comprising non-ionic copolymer with various concentrations of pharmacologically active bile acids for cellular injectable gel.” Colloids and Surfaces B: Biointerfaces (2022): 113014). Briefly, the first injection was with media without glucose, with subsequent ATP synthase inhibitor oligomycin and FCCP (carbonyl cyanide-p-trifluoromethoxy phenylhydrazone) and the final injection was complex […] inhibitors Rotenone+antimycin A 77. The result was automatically generated and analysed by the wave software. The OC-1 cells were pre-treated with cisplatin at three different concentrations (20, 30 and 40 μM) for 24 or 48 hours to induce cytotoxicity prior to the seahorse bioenergetics assays.

[2] = system: OC-1 cells; test: Cobalt chloride hypoxia assay; assay type: cell-based; details: cells pre-treated with CoCl2 at 100 μM for 24 hours, microscopic examination
Method: This assay is used to determine whether an intervention can reverse hypoxic-induced cell death brought about by cobalt chloride. For this assay, cells are pre-treated with CoCl2 at 100 μM for 24 hours, followed by microscopic examination of cell morphology and viability.

[3] = system: Caspase 3/9 protein; test: Caspase assay; assay type: cell-based; details: OC-1 cells under stressful, toxic conditions (FIG. 31)
Method: The caspase assay was carried as per manufacturer's instructions (abcam, NSW, Australia), as described below.
• Collagen coated cover slip • Fixing agent: 4% paraformaldehyde • Permeabilization agent 0.5% of Tween 20 or trition-X 100 diluted in PBS • Blocking: 1% BSA in PBST may also be used. • PBST: 0.1% Tween 20 in PBS • Primary abs (1:500 in PBS) • Secondary abs (1:1000 in PBS) • Hoechst (Nuclear stain)
First day: Fixation, permeabilize, blocking and add a primary antibody to the cells, as described below:
• Start by aspirating culture medium from each well followed by fixation of the cells with 4% Using 4% paraformaldehyde in PBS pH 7.4 for 10 min at room temperature. (Add one ml in each well). • Shake a plate for a few seconds.
0.5% of Tween 20 or trition-X 100 diluted in PBS. […]
• Make coverslips ready to be mounted onto microscope slides. • Take a clean slide and dispense one drop of antifade mounting medium by slowly from the pipette into the slide. • Carefully remove a coverslip from the well and allow excess wash to drip off and place the cells face down onto the slide. • Clear fingernail polish can be used to seal the coverslip and prevent it from drying out. • Visualized slide under microscope. […]

[4] = system: Neurodegenerated cells (Parkinson's disease model); test: ROS assay, Parkinson's disease model; assay type: cell-based, human; details: PD model
Method: (§1) Perinatal tissue derived human stem cell model for Parkinson's disease (PD) was prepared using proprietary protocols to test the effect of new drug entities. Drug treatment was for 24 hours in all the assays.
(§2) Increase in oxidative stress associated with accumulation of α-synuclein plays a central role in disease progression. Nitric oxide enhances the aggregation of α-synuclein and accelerates disease progression. Increased oxidative stress and nitric oxide levels lead to apoptosis and evoke cytotoxic effects on neurons.

[5] = system: Neurodegenerated cells (perinatal tissue derived human stem cell model for Parkinson's disease); test: Mitochondrial membrane potential by TMRE assay, Parkinson's disease model; assay type: cell-based; details: PD model; probucol 20 μM, SPQ 10 μM, HA-1 10 μM, L-Dopa 50 μM, 24 hours
Method: as §1
Dysfunctional mitochondria and alterations in the mitochondrial membrane potential promote neurodegeneration seen in Parkinson's disease. For assessing the changes in mitochondrial membrane potential, we used TMRE (tetramethylrhodamine ethyl ester) to quantify the changes in live cells by fluorimetry.
(§3) Neurodegenerated cells were incubated with probucol (20 μM), SPQ (10 μM), HA-1 (10 μM) and L-Dopa (50 μM) for 24 hours (p<0.05; *p<0.05, **p<0.001, ***p<0.0001, ns=non-significant, n=3).

[6] = system: Neurodegenerated cells (Parkinson's disease model); test: Glutathione peroxidase / GSH activity, Parkinson's disease model; assay type: cell-based, human; details: PD model; vs neurodegeneration
Method: as §1
Parkinson's disease-related increase in oxidative stress is associated with mitochondrial dysfunction and subsequent decrease in the levels of brain antioxidant glutathione (GSH).
(Statistical analysis: Results are expressed in mean±SD. One-way ANOVA followed by Dunnett's post hoc test was performed to compare all columns vs neurodegeneration (p<0.05; *p<0.05, **p<0.001, ***p<0.0001, ns=non-significant, n=3).)

[7] = system: Neurodegenerated cells (Parkinson's disease model); test: Gene expression analysis by qRT-PCR for neuronal, dopaminergic and PD associated markers; assay type: cell-based, human; details: 24 hours drug treatment
Method: as §1
Gene expression levels of mature neuronal marker (Synapsin I), dopaminergic markers (Nuclear receptor related 1 (Nurr1), Dopamine transporter (DAT) and Tyrosine hydroxylase (TH)), and PD associated marker (α-synuclein) were analysed to determine the effect of probucol, SPQ, HA-1 and L-Dopa.
(A) Synapsin I, (B) Nurr1, (C) DAT, (D) TH and (E) α-synuclein. (p<0.05; *p<0.05, **p<0.001, ***p<0.0001, n=3).

[8] = system: Neurodegenerated cells (Parkinson's disease model); test: Greiss (nitric oxide) assay, Parkinson's disease model; assay type: cell-based, human; details: PD model
Method: as §1, §2

[9] = system: Neurodegenerated cells (Parkinson's disease model); test: Adenosine triphosphate (ATP) assay, Parkinson's disease model; assay type: cell-based, human; details: PD model; probucol 20 μM, SPQ 10 μM, HA-1 10 μM, L-Dopa 50 μM, 24 hours
Method: as §1
Impaired energy metabolism and reduced ATP levels are common features of PD. Using the stem cell derived PD model, we measured ATP levels in drug treated (probucol, SPQ and HA-1 and L-Dopa) cells and compared with neurodegenerated (ND) cells.
as §3

[10] = system: Neurodegenerated cells (Parkinson's disease model); test: Immunocytochemical localization of PD specific and neuronal markers; assay type: cell-based, human; details: fluorescence micrographs
Method: as §1
For further confirmation and protein localization of neuronal, dopaminergic and PD specific neurodegenerative markers, we performed immunolocalization for synapsin I, Nurr1, TH and α-synuclein respectively.
Fluorescence micrographs of synapsin 1 positive neuronal cells were obtained and the effects of probucol, SPQ and HA-1 on neurodegeneration model with L-Dopa as positive control were compared.
Fluorescence micrographs of Nurr1 positive dopaminergic neuronal cells were obtained and the effects of probucol, SPQ and HA-1 on neurodegeneration model with L-Dopa as positive control were compared.
Fluorescence micrographs of TH positive dopaminergic neuronal cells were obtained and the effects of probucol, SPQ and HA-1 on neurodegeneration model with L-Dopa as positive control were compared.
Fluorescence micrographs of α-synuclein immunolocalization were obtained and the effects of probucol, SPQ and HA-1 on neurodegeneration model with L-Dopa as positive control were compared.

[11] = system: Neurodegenerated cells (Alzheimer's disease model); test: Greiss (nitric oxide) assay, Alzheimer's disease model; assay type: cell-based, human; details: AD model
Method: (§4) Perinatal tissue derived human stem cell model for Alzheimer's disease (AD) was prepared using proprietary protocols to test the effect of new drug entities. Drug treatment was for 24 h in all the assays.
(§5) Increase in oxidative stress is associated with accumulation of amyloid beta seen in the AD model. Increased oxidative stress and nitric oxide levels lead to apoptosis and evoke cytotoxic effects on neurons.

[12] = system: Neurodegenerated cells (perinatal tissue derived human stem cell model for Alzheimer's disease); test: Lactate dehydrogenase (LDH) assay, in vitro model of Alzheimer's disease; assay type: cell-based; details: probucol 20 μM, SPQ 10 μM, HA-1 10 μM, rivastigmine 2 μM, 24 hours; compared to ND cells
Method: as §4
LDH leakage is a well characterised marker of cellular membrane damage and increase in indicative of lactate deficit, is a hallmark of AD.

[13] = system: Neurodegenerated cells (Alzheimer's disease model); test: Glutathione peroxidase / GSH activity, Alzheimer's disease model; assay type: cell-based, human; details: AD model; vs neurodegeneration
Method: as §4
Alzheimer's disease-related increase in oxidative stress is associated with decrease in the levels of brain antioxidant glutathione (GSH).
(Statistical analysis: results are expressed in mean±SD. One-way ANOVA followed by Dunnett's post hoc test was performed to compare all columns vs neurodegeneration (p<0.05; *p<0.05, **p<0.001, ***p<0.0001, ns=non-significant, n=3).)

[14] = system: Neurodegenerated cells (Alzheimer's disease model); test: ROS (reactive oxygen species) assay, Alzheimer's disease model; assay type: cell-based, human; details: AD model
Method: as §4, §5

[15] = system: Neurodegenerated cells (Alzheimer's disease model); test: Gene expression analysis by qRT-PCR for neuronal, cholinergic and AD associated markers; assay type: cell-based, human; details: 24 h drug treatment
Method: as §4
For determining the expression of genes involved in AD specific neurodegeneration and neuronal markers, we analysed BACE and chAT (AD and cholinergic markers) and synapsin 1 and neuropilin (neuronal markers).

[16] = system: Neurodegenerated cells (Alzheimer's disease model); test: Mitochondrial membrane potential by TMRE assay, Alzheimer's disease model; assay type: cell-based, human; details: AD model; probucol 20 μM, SPQ 10 μM, HA-1 10 μM, rivastigmine 2 μM, 24 hours
Method: as §4
Aβ plaques are sources of toxicity that lead to severe structural and functional abnormalities in mitochondria in Alzheimer's disease. For assessing the changes in the electrophysiology and functional changes in the mitochondrial membrane potential, we used TMRE (tetramethylrhodamine ethyl ester) for quantifying changes in mitochondrial membrane potential in live cells by fluorimetry.

[17] = system: Neurodegenerated cells (Alzheimer's disease model); test: Immunocytochemical localization of AD specific and neuronal markers; assay type: cell-based, human; details: fluorescence micrographs
Method: as §4
For further confirmation and protein localization of the AD specific neurodegenerative markers and neuronal markers, we performed immunolocalization for BACE1 and synapsin respectively.
Fluorescence micrographs of BACE1 positive neuronal cells were obtained and the effects of probucol, SPQ and HA-1 on neurodegeneration model were compared. […] In the AD model, as expected BACE1 accumulation is clearly pronounced.
In the case of synapsin 1, a disruption in expression of synapsin protein in ND cells was observed.

With `CC(=O)O[C@@H]1CC[C@@]2(C)C(C1)C[C@@H](OC(C)=O)[C@H]1[C@@H]3CC[C@H]([C@H](C)CCC(=O)Oc4c(C(C)(C)C)cc(SC(C)(C)Sc5cc(C(C)(C)C)c(O)c(C(C)(C)C)c5)cc4C(C)(C)C)[C@@]3(C)CC[C@@H]12` (stereo in doubt) [HA-2, 2,6-di-tert-butyl-4-((2-((3,5-di-tert-butyl-4-hydroxyphenyl)thio)propan-2-yl)thio)phenyl (4R)-4-[(3R,5R,7R,8R,9S,10S,13R,14S,17R)-3,7-diacetoxy-10,13-dimethyl-2,3,4,5,6,7,8,9,11,12,14,15,16,17-tetradecahydro-1H-cyclopenta[a]phenanthren-17-yl]pentanoate] the “oxygen consumption rate (OCR)” value ([1]; OC-1 cells after 24 hours exposure to cisplatin (20, 30 and 40 μM)) was “most potent in reversing the cisplatin-induced cytotoxicity”, the “oxygen consumption rate (OCR)” value ([1]; OC-1 cells after 48 hours exposure to cisplatin (20, 30 and 40 μM)) was “significantly reverse the cytotoxic effects of cisplatin” and the cell morphology [2] was “optimal morphology”. For the same molecule, the “protection against programmed cell death (caspase-3 activation) / viable cell population” value [3] was “least amount of cell death”.

With `N[C@@H](Cc1ccc(O)c(O)c1)C(=O)O` [L-Dopa, Levodopa] the “intracellular reactive oxidative stress (ROS)” value [4] was “reduction of ROS and NO levels”, the “mitochondrial membrane potential (TMRE)” value [5] was “maintain the mitochondrial membrane potential” and the “glutathione (GSH) activity” value [6] was “increase in the GSH activity”. For the same molecule, the “TH gene expression (qRT-PCR)” value [7] was “clearly upregulated”, the nitric oxide level [8] was “reduction of ROS and NO levels” and the ATP level [9] was “Enhanced increase in ATP levels”. The “accumulation of α-synuclein (immunolocalization)” value [10] was “least expression”.

For `CCN(C)C(=O)Oc1cccc([C@H](C)N(C)C)c1` [rivastigmine], the nitric oxide level [11] was “reduction of ROS and NO levels”, the “LDH activity / LDH release” value [12] was “decreased significantly LDH activity” and the “glutathione (GSH) activity” value [13] was “increase in the anti-oxidant GSH activity”. The “intracellular reactive oxidative stress (ROS)” value [14] was “reduction of ROS and NO levels”, the “BACE1 gene expression (qRT-PCR)” value [15] was “decrease the level of beta secretase 1 (BACE1)” and the “ChAT gene expression (qRT-PCR)” value [15] was “increase the level of choline acetyltransferase (ChAT)”. The “mitochondrial membrane potential (TMRE)” value [16] was “maintain the mitochondrial membrane potential” and the “accumulation of BACE1 protein (immunolocalization)” value [17] was “least expression”.
